Test systems include DMS 114 small cell lung; XF 498 CNS; DMS 273 small cell lung; RXF-631 renal; T-47D breast; NCI/ADR-RES ovarian; HS 578T breast; MDA-N; P388 leukemia; SN12K1 renal; P388/ADR leukemia.
Holding throughout (assay): NCI tumour cell line growth inhibition, 48 h

The values that follow come from PubChem BioAssay (NCI).

“And” between values parts separate entries of the source, which are not always exact repeats. Equal values may be shown once.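 Five concentrations, 48 hours, 96-well plates. The concentration for 50% growth inhibition is given as GI50. At the TGI there is no net growth.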

`O=C(O)c1ccccc1[Se][Se]c1ccccc1C(=O)O`: the TGI with DMS 114 small cell lung, in the test on XF 498 CNS, with DMS 273 small cell lung and in the test with RXF-631 renal was more than 100 µM each time.

On to `CC(C)=CC(=O)C1c2cccc(O)c2C(=O)c2c(O)cc(C)cc21` (configuration not stated), for which the figures for the TGI in the test with DMS 114 small cell lung, with XF 498 CNS and with DMS 273 small cell lung were 3.57 µM, 3.11 µM and 9.46 µM, respectively.

For `O=C(O)CCc1coc2ccc(O)cc12`, the TGI in the test on DMS 114 small cell lung, in the test with XF 498 CNS and in the test on DMS 273 small cell lung was more than 100 µM each time.

In the case of `COC(=O)CC1CCN(C#N)CC1CC[N+](=O)[O-]` (configuration not stated), the TGI in the test on DMS 114 small cell lung, in the test on DMS 273 small cell lung and in the test on RXF-631 renal was more than 100 µM in each case.

For `Cc1ccc(N=Nc2ccc(N(CCC#N)CCC#N)cc2C)c(Br)c1`, the TGI in the test on DMS 114 small cell lung was more than 100 µM; with XF 498 CNS, 40.6 µM; in the test with DMS 273 small cell lung it was 41.4 µM; in the test with RXF-631 renal, 81.3 µM.

As to `CC(C)C/C(CC(=O)CCC(=O)Nc1ccccc1[N+](=O)[O-])=N\NC(=O)c1cc2ccccc2cc1O`, the figures for the TGI with DMS 114 small cell lung, in the test with XF 498 CNS and in the test on RXF-631 renal were 86.8 µM, more than 100 µM and more than 100 µM, respectively.

As to `Cn1cnc([N+](=O)[O-])c1Sc1nnc(-c2cccnc2)n1C`, the TGI with DMS 114 small cell lung was more than 49.2 µM; with XF 498 CNS, 44.8 µM; with T-47D breast, 32 µM; with DMS 273 small cell lung, more than 100 µM; in the test with NCI/ADR-RES ovarian it was more than 100 µM; in the test with HS 578T breast it was more than 89.4 µM. Moreover, the TGI in the test on MDA-N was found to be 43.3 µM.

For `CCOc1ccc(NC(=O)C(=O)CC(=O)c2c[n+](=O)c3cc(C)c(C)cc3n2[O-])cc1`, the TGI with DMS 114 small cell lung, in the test with XF 498 CNS, with DMS 273 small cell lung and with RXF-631 renal was more than 100 µM each time.

For `O=CC[C@H]1C(=O)C[C@@H]2CCC[C@@H]21`, the TGI with XF 498 CNS was more than 100 µM.

For the molecule `O=C(N/C(=C\c1ccc(/C=C(\NC(=O)c2ccccc2)c2nc3cc([N+](=O)[O-])ccc3[nH]2)cc1)c1nc2cc([N+](=O)[O-])ccc2[nH]1)c1ccccc1`, the TGI in the test on DMS 114 small cell lung, in the test on DMS 273 small cell lung and with RXF-631 renal was more than 100 µM each time.

Turning to `c1ccc2cc(-c3cc(-c4cc(-c5ccc6ccccc6c5)on4)no3)ccc2c1`, the TGI with T-47D breast, with NCI/ADR-RES ovarian, with HS 578T breast and in the test on MDA-N was more than 100 µM in each case.

For `COC(CN1C(=O)c2cccc3cccc(c23)C1=O)OC`, the TGI in the test with DMS 114 small cell lung, with XF 498 CNS and with DMS 273 small cell lung was more than 100 µM throughout.

On to `CCCCCCCCCCCCCCCCCC(CCCCCCCCCCCCCCCCC)OP(=O)(O)O`, for which the TGI in the test on DMS 114 small cell lung and in the test with DMS 273 small cell lung was more than 100 µM throughout.

As to `COC1(OC)CCC2C1C1CCC(OC)(OC)C21` (configuration not stated), the TGI with DMS 114 small cell lung, in the test on XF 498 CNS, in the test on DMS 273 small cell lung and with RXF-631 renal was more than 50 µM each time.

On to `CN1C(=O)C(C)(C)C2(SC(C)(C)C2(C)C)N(C)C1=S` (configuration not stated), for which the TGI in the test on DMS 114 small cell lung and with DMS 273 small cell lung was more than 100 µM throughout.

Regarding `Cc1ccc2c(=O)cc(-c3ccc(F)cc3)[nH]c2n1`, the TGI in the test on T-47D breast is more than 100 µM; in the test on NCI/ADR-RES ovarian, 86.9 µM; in the test on HS 578T breast, more than 100 µM; with MDA-N it was 32.1 µM.

On to `COc1cc2c(cc1OC)-c1c3cc(O)ccc3nn[n+]1CC2`, for which the TGI in the test on DMS 114 small cell lung, in the test on XF 498 CNS and with DMS 273 small cell lung was more than 100 µM throughout.

`CCCCC(=O)OCC(=O)[C@]1(O)Cc2c(O)c3c(c(O)c2[C@@H](OC2CC(NC(=O)C(F)(F)F)C(O)C(C)O2)C1)C(=O)c1c(OC)cccc1C3=O` (some centres not stated): the TGI in the test on DMS 114 small cell lung was found to be 1.66 µM; in the test on XF 498 CNS it was 0.97 µM; with T-47D breast, 7.55 µM; with DMS 273 small cell lung, 3.39 µM; with RXF-631 renal it was 6.44 µM; in the test with HS 578T breast, 5.05 µM. In addition, in the test with MDA-N, the TGI amounted to 5.02 µM.

As for `C/C(CC(=O)CCC(=O)Nc1cccc(C(F)(F)F)c1)=N\NC(=O)NN`, the TGI in the test with DMS 114 small cell lung, in the test with XF 498 CNS, with DMS 273 small cell lung and with RXF-631 renal was more than 100 µM each time.

On to `CCN(CCO)CC1CCCC2CCCCC21` (configuration not stated), for which the TGI in the test with T-47D breast, in the test with NCI/ADR-RES ovarian, in the test on HS 578T breast and in the test with MDA-N was more than 100 µM throughout.

Turning to `COC(=O)[C@@H]1[C@H](O)[C@H](C)[C@H](O)[C@@](C)(O)/C=C\C=C(C)C(=O)Nc2c(C)c(OC(C)=O)c3c(c2O)C(=O)C(C)=C2OCOC(=C23)C(C)=C[C@@](C)(O)[C@H](O)[C@@H](C)[C@H]1OC(C)=O`, the TGI in the test with DMS 114 small cell lung is > 100 µM and 21.9 µM; in the test with DMS 273 small cell lung it was more than 100 µM; in the test with RXF-631 renal it was > 100 µM and 66.9 µM. In addition, the GI50 in the test with RXF-631 renal was > 100 µM and 39.8 µM and 36.4 µM.

On to `N#CCCN(CCC#N)c1ccc(/C=C2\N=C(c3cc([N+](=O)[O-])ccc3Cl)OC2=O)cc1`, for which the figures for the TGI in the test with DMS 114 small cell lung, in the test on XF 498 CNS and in the test on DMS 273 small cell lung were 47.9 µM, 86.2 µM and more than 100 µM, respectively.

Regarding `O=C(/C=C/c1ccccc1)NC1C=Nc2ccc(Cl)cc2NC1=O` (configuration not stated), the TGI in the test with DMS 114 small cell lung is 30.4 µM; in the test on XF 498 CNS, 50.1 µM; in the test on DMS 273 small cell lung, 54.6 µM; in the test with RXF-631 renal, more than 100 µM.

For `COc1ccccc1C12OC(=O)C1(C)Oc1ccccc1C2=O` (configuration not stated), the TGI in the test with DMS 114 small cell lung was more than 100 µM; with XF 498 CNS it was more than 100 µM; with DMS 273 small cell lung, 86.4 µM; in the test with RXF-631 renal, more than 100 µM.

As to `O=C1C=C(Cl)C(=O)C(c2ccc(Cl)cc2)=C1`, the TGI came to 84.4 µM in the test on T-47D breast, 79 µM with NCI/ADR-RES ovarian, 74.9 µM in the test with HS 578T breast and 27.5 µM in the test on MDA-N.

Take `O=C1C2C(C(=O)N1OS(=O)(=O)c1ccccc1)N(Cc1ccccc1)C(=O)N2Cc1ccccc1` (configuration not stated): the TGI with DMS 114 small cell lung, in the test on XF 498 CNS and with RXF-631 renal was more than 100 µM throughout.

Consider `O=C(COc1ccc(Br)cc1Br)N1N=C(c2ccc([N+](=O)[O-])o2)CC1(O)c1ccccc1` (configuration not stated), for which the values for the TGI in the test with DMS 114 small cell lung and in the test with DMS 273 small cell lung were 23.5 µM and 32.5 µM, respectively.

As to `N#CC(c1ccc(Cl)cc1)c1cccc(C(C#N)c2ccc(Cl)cc2)n1` (configuration not stated), the TGI with XF 498 CNS was 26.2 µM.

With `O=C1C(=O)N(c2ccc(Cl)cc2Cl)C(=O)C(=O)C1c1nc2ccccc2s1`, the TGI was more than 100 µM in the test with DMS 114 small cell lung, 98.1 µM in the test with XF 498 CNS and more than 100 µM with DMS 273 small cell lung.

As to `O=CN/C=C/c1cc(O)ccc1O`, the TGI in the test with DMS 114 small cell lung is 31.8 µM; in the test on XF 498 CNS, 34.1 µM; in the test with P388 leukemia, 5.2 µM; in the test on DMS 273 small cell lung, more than 100 µM; in the test with NCI/ADR-RES ovarian, 42.1 µM; in the test with SN12K1 renal it was 32.4 µM. Moreover, in the test with P388/ADR leukemia, the TGI was 4.14 µM.

As to `Clc1cc2nsnc2c(Cl)n1`, the figures for the TGI with DMS 114 small cell lung, in the test with XF 498 CNS and in the test on DMS 273 small cell lung were 33.5 µM, 31.2 µM and more than 100 µM, respectively.

As to `N#CC1C(C#N)C2(c3ccccc3)C(c3ccccc3)=NN(c3ccccc3)CC12` (configuration not stated), the TGI with DMS 114 small cell lung, in the test on XF 498 CNS and with DMS 273 small cell lung was more than 100 µM throughout.

In the test with DMS 114 small cell lung, `Cc1nc2ccccc2c(=O)n1-c1ccccc1I` yielded a TGI of more than 100 µM.

As to `O=C1/C(=C/c2ccccc2)CN(C(=O)C(Cl)(Cl)Cl)C/C1=C\c1ccccc1`, the values for the TGI in the test with DMS 114 small cell lung and in the test on DMS 273 small cell lung were 3.19 µM and 2.38 µM, respectively.

For the molecule `COC1CCC2C(NS(=O)(=O)c3ccc(C)cc3)CCCC2O1` (configuration not stated) (tested in a mixture with another compound), the TGI with DMS 114 small cell lung was 27.9 µM; in the test with DMS 273 small cell lung, 22.8 µM; in the test on RXF-631 renal, more than 34.5 µM.

Turning to `CN(C)C(=N)c1ccccc1`, the TGI in the test with DMS 114 small cell lung, in the test with XF 498 CNS and in the test with DMS 273 small cell lung was more than 100 µM each time.

For `Cc1cc(C)nc(NS(=O)(=O)c2ccc(NC(=O)c3ccc(Cl)c4c(Nc5ccc(S(=O)(=O)Nc6nc(C)cc(C)n6)cc5)c5ccccc5nc34)cc2)n1`, the TGI with DMS 114 small cell lung is 8.54 µM; in the test on XF 498 CNS, more than 100 µM; with DMS 273 small cell lung it was more than 100 µM; in the test on RXF-631 renal, more than 100 µM.

With `CC1=C(C(=O)NCc2ccccc2)C(/C=C/c2ccccc2)C(C(=O)NCc2ccccc2)=C(C)N1`, the TGI with DMS 114 small cell lung, in the test with XF 498 CNS and in the test on DMS 273 small cell lung was more than 100 µM in each case.

For `O=S1(=O)c2ccccc2NC(c2ccc3ccccc3c2)CC1c1ccccc1F` (configuration not stated), the TGI in the test with XF 498 CNS, with DMS 273 small cell lung and in the test with RXF-631 renal was more than 100 µM throughout.

In the case of `C=C1C(=O)C23CC1CCC2C12CO[C@@H]4OCC(C)(CC[C@@H]1OC3=O)C42` (some centres not stated), the TGI with DMS 114 small cell lung turned out to be 4.16 µM; in the test on XF 498 CNS, 3.41 µM; with DMS 273 small cell lung, 19.6 µM; in the test on RXF-631 renal, 47.8 µM.

`CN/N=C(/Cc1occc(=O)c1O)C(=O)Nc1ccccc1C`: the TGI in the test on DMS 114 small cell lung is more than 100 µM.
